# Measured values published in patent US20240398970A1, “B7-H3 TARGETING ANTIBODY-DRUG CONJUGATE, AND PREPARATION METHOD THEREFOR AND USE THEREOF” (priority 2020, published 2024).
# Numbered stars: 1 amine (or outer) side, 2 acyl side, 3 side chain; on linkers, the order of the positions; unused ones are H or OH. Square brackets hold non-standard residues; d marks the D form. Peptide text beside a SMILES is read from it. * marks the point of attachment. X1 = CC[C@@]1(O)C(=O)OCc2c1cc1n(c2=O)Cc2c-1nc1cc(F)c(C)c3c1c2C(N*)CC3; Hexanoyl(6-maleimido) = O=C1C=CC(=O)N1CCCCCC(=O)*; NHCH2OCH2CO = O=C(COCN[*:1])[*:2]
# Assays:
# NCI-N87 cell line = assay: Killing activity on NCI-N87 before and after enzyme digestion by cathepsin B system; type: cell-based; details: NCI-N87, 144 hours, after cathepsin B system pH 5.0, 37° C., 4 hours; read-out: IC50 (based on SN-38 equivalent) After Enzyme Digestion
# Protocol: NCI-N87 cell line was selected as the experimental cell lines. After the sample was incubated in cathepsin B system (100 mM sodium acetate-acetic acid buffer, 4 mM dithiothreitol, pH 5.0) at 37° C. for 4 hours, the obtained sample was diluted with culture medium to different concentrations. 8 concentrations (1.5 to 10-fold dilution) were set from 70 nM to 0.003 nM of SN-38 concentration. […] The IC50 value was calculated by reading the […] data after chemical luminescent staining with CellTiter-Glo® Luminescent Cell Viability Assay.
# [1] = Coupling of linker-drug conjugates with other/different antibodies; type: physicochemical; details: coupling with antibodies other than or including FDA016
# cathepsin B = cathepsin B (Homo sapiens, UniProt P07858); assay: In vitro enzyme digestion of linker-drug conjugates; type: in vitro ADME; details: pH 5.0 to 7.0
# Protocol: The linker-drug conjugate (LE14 and GGFG-Dxd) was co-incubated with cathepsin B in three different pH (5.0, 6.0, 7.0) buffers. Samples were taken at different time points and entered into a high-performance liquid chromatography-mass spectrometry instrument. The external standard method (with DXD as the external standard) was used to determine the release percentage of the drug.
SMILES,IC50 (NCI-N87 cell line),Aggregation ratio when coupled with other/different antibodies [1],Precipitation when coupled with other/different antibodies [1],Speed of enzyme digestion (cathepsin B)
"CCc1c2c(nc3ccc(O)cc13)-c1cc3c(c(=O)n1C2)COC(=O)[C@]3(O)CC [SN-38, 7-ethyl-10-hydroxycamptothecin]",7.45 nM,–,–,–
CC[C@@]1(O)C(=O)OCc2c1cc1n(c2=O)Cc2c-1nc1cc(F)c(C)c3c1c2C(NC(=O)COCNC(=O)CNC(=O)[C@H](Cc1ccccc1)NC(=O)CNC(=O)CNC(=O)CCCCCN1C(=O)C=CC1=O)CC3 (stereo partly shown) [GGFG-Dxd] ({Hexanoyl(6-maleimido)}-GGFG[NHCH2OCH2CO]-X1),–,high aggregation ratio,produced precipitation,slow speed of enzyme digestion
